The values that follow come from patent publication US9347013B2, “Natural oil derivative based thickener components used in grease compositions and processes for making such compositions” (Elevance Renewable Sciences, Inc., priority 2014, dated 2016).

Data set [1] can be described thus: Log P (oil solubility) of grease complexing agents. The conditions noted are these: more oil soluble than azelaic acid.

Usually logP stands for the decadic logarithm of the partition coefficient of the neutral form, usually between octanol and water.

In the case of `O=C(O)CCCCCCCC(=O)O` [Azelaic (C9), azelaic acid, reference compound], the logP in “physchem” was 2.01. As for `O=C(O)CCCCCCCCCCCCCCCCC(=O)O` [ERS ODDA (C18), octadecanedioic acid], the “oil solubility relative to azelaic acid” value in data set [1] is reported as “about 1.5 times”. Also, the logP in “physchem” is 3.
